Source: paper PMC8001104, “Repurposing of Some Natural Product Isolates as SARS-COV-2 Main Protease Inhibitors via In Vitro Cell Free and Cell-Based Antiviral Assessments and Molecular Modeling Approaches” (Pharmaceuticals, 2021)
pIC50: −log10 of the molar value. Values after ≈ are worked out from the molar mass of the structure shown. Like-named read-outs stand apart in the source and are kept apart here.

Columns and labels:
SARS-CoV-2 3CL Protease = SARS-CoV-2 3CL Protease (Severe acute respiratory syndrome coronavirus 2, UniProt P0DTD1); assay: biochemical; conditions: for % inhibition: 100 µM
[1] = set-up: method as in PMID 31468636; conditions: dose of 600 mg, healthy volunteers, cited from earlier work
[2] = test system: SARS-CoV-2 (hCoV-19/Egypt/NRC-03/2020); assay: Antiviral IC50 determination, reduction of virus-induced cytopathic effect in Vero-E6 cells (crystal violet); assay type: cell-based
Cytotoxicity assay (MTT) = assay type: cell-based; conditions: African green monkey, VERO-E6 cells
Procedure: The cytotoxic activity of the tested compounds was tested in VERO-E6 cells by using the 3-(4, 5-dimethylthiazol-2-yl)-2, 5-diphenyltetrazolium bromide (MTT) method with minor modifications. Briefly, the cells were seeded in 96 well-plates (100 µL/well at a density of 3 × 10^5 cells/mL) and incubated for 24 h at 37 °C in 5% CO2. After 24 h, cells were treated with various concentrations of the tested compounds in triplicates. 24 h later, the supernatant was discarded, and cell monolayers were washed with sterile 1× phosphate buffer saline (PBS) 3 times and MTT solution (20 µL of 5 mg/mL stock solution) was added to each well and incubated at 37 °C for 4 h followed by medium aspiration. In each well, the formed formazan crystals were dissolved with 200 µL of acidified isopropanol (0.04 M HCl in absolute isopropanol = 0.073 mL HCL in 50 mL isopropanol). Absorbance of formazan solutions was measured at λ max 540 nm with 620 nm as a reference wavelength using a multi-well plate reader. The percentage of cytotoxicity compared to the untreated cells was determined with the following equation.

[3] = 100 µM concentration, FRET assay, read-out: % inhibition
[4] = SARS COV-2 viral main protease, FRET assay, read-out: IC50
[5] = 100 µM concentration, FRET assay

Compound	inhibition at 100 µM (SARS-CoV-2 3CL Protease; [3])	inhibition at 100 µM (SARS-CoV-2 3CL Protease)	further results
C[C@@H]1O[C@@H](O[C@@H]2[C@@H](O)[C@H](OCCc3ccc(O)c(O)c3)O[C@H](CO)[C@H]2OC(=O)/C=C/c2ccc(O)c(O)c2)[C@H](O)[C@H](O)[C@H]1O [Compound 1, Acteoside]	75.8%	–	pIC50 (SARS-CoV-2 3CL Protease): 7.37
O=C(O)c1cc(O)c2c(c1)[C@@H]([C@H]1c3cc(C(=O)O)cc(O)c3C(=O)c3c(O[C@@H]4O[C@H](CO)[C@@H](O)[C@H](O)[C@H]4O)cccc31)c1cccc(O[C@@H]3O[C@H](CO)[C@@H](O)[C@H](O)[C@H]3O)c1C2=O [Compound 2, Sennoside B]	–	78.5%	–
O=C(c1cc(O)cc(O)c1)c1c(O)cc(O)cc1O [Compound 3, 2,3′,4,5′,6-Pentahydroxy benzophenone]	87.9%	–	pIC50 (SARS-CoV-2 3CL Protease; [4]): 6.99
COc1ccc(-c2cc(=O)c3c(O)cc(O)cc3o2)cc1Oc1ccc(-c2cc(=O)c3c(O)cc(O)cc3o2)cc1 [Compound 4, Ochnaflavone-4′-methyl ether]	53%	–	% inhibition (SARS-CoV-2 3CL Protease; [5]): 53.22%
O=C1C[C@@H](c2ccc(O)cc2)Oc2cc(O)cc(O)c21 [Compound 5, Naringenin]	–	97.9%	toxicity [1]: without relevant toxicity; Cmax ([1]; read-out: serum Cmax): ~50 µM; IC50 ([2]; Severe acute respiratory syndrome coronavirus 2, Vero C1008, 72 h, read-out: IC50 (anti-SARS-CoV-2)): 28.3 µg/mL (≈ 104 µM); selectivity index (CC50/IC50) ([2]; Vero-E6 cells): 6.3; pIC50 (SARS-CoV-2 3CL Protease): 7.04; CC50 at 24 h (Cytotoxicity assay (MTT)): 179 µg/mL (≈ 657 µM)
O=c1cc(-c2ccc(O)cc2)oc2cc(OC3O[C@H](CO)[C@@H](O)[C@H](O)[C@H]3O)cc(O)c12 (stereo partly drawn) [Compound 6, Apigenin-7-O-β-D-glucoside]	83.1%	–	pIC50 (SARS-CoV-2 3CL Protease; [4]): 7.13
CC(C)C(=O)NCCC1(O)c2scnc2-c2nccc3c2C1Nc1ccccc1-3 (centres unmarked) [Compound 7, Sagitol C]	–	27%	–
O=C(c1ccc(O)c(O)c1)c1c(O)cc(O)cc1OC1OC(CO)C(O)C(O)C1O [Compound 8, Maclurin-6-O-β-D-glucopyranoside (Rhodanthenone)]	–	23.2%	–
C[C@@H]1O[C@@H](O[C@@H]2[C@@H](O)[C@H](OCCc3ccc(O)c(O)c3)O[C@H](COC(=O)/C=C/c3ccc(O)c(O)c3)[C@H]2O)[C@H](O)[C@H](O)[C@H]1O [Compound 15, Iso-Acteoside]	–	24.6%	–
O=c1c(O)c(-c2ccc(O)cc2)oc2cc(OC3OC(CO)C(O)C(O)C3O)cc(O)c12 [Compound 16, Kaempferol-7-O-β-D-glucoside]	–	23.3%	–
CC1=CC(=O)C(C(C)C)=CC1=O [Compound 17, Thymoquinon]	63%	–	% inhibition (SARS-CoV-2 3CL Protease; [5]): 63.21%
C/C=C1/[C@H](O[C@@H]2O[C@H](CO)[C@@H](O)[C@H](O)[C@H]2O)OC=C(C(=O)OC)[C@H]1CC(=O)OCCc1ccc(O)c(O)c1 [Compound 18, Oleuropein]	–	26.4%	–
